According to PubChem BioAssay (NCI):
“And” between values parts separate entries of the source, which are not always exact repeats. Equal entries are not always repeated.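 Exposure lasted 48 hours, with cells grown in 96-well plates and compounds tested at five concentrations. Abbreviation: GI50, concentration required for 50% inhibition of growth. TGI is the concentration that stops growth completely.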

Legend:
Assay in all cases: NCI tumour cell line growth inhibition, 48 h
DLD-1 colon = system: DLD-1 colon
DMS 273 small cell lung = system: DMS 273 small cell lung
HOP-18 NSCLC = system: HOP-18 NSCLC
KM20L2 colon = system: KM20L2 colon
LXFL 529 NSCLC = system: LXFL 529 NSCLC
M19-MEL melanoma = system: M19-MEL melanoma
SNB-78 CNS = system: SNB-78 CNS
RXF-631 renal = system: RXF-631 renal
MDA-N = system: MDA-N
P388 leukemia = system: P388 leukemia
P388/ADR leukemia = system: P388/ADR leukemia

| Structure (SMILES) | TGI (DLD-1 colon) [µM] | TGI (DMS 273 small cell lung) [µM] | TGI (HOP-18 NSCLC) | TGI (KM20L2 colon) | TGI (LXFL 529 NSCLC) [µM] | TGI (M19-MEL melanoma) [µM] | TGI (SNB-78 CNS) | TGI (RXF-631 renal) | TGI (MDA-N) | further results |
| --- | --- | --- | --- | --- | --- | --- | --- | --- | --- | --- |
| COc1ccc(-c2cc(C(=O)Nc3cccc(C(F)(F)F)c3)[nH]c(=S)n2)cc1 | > 100 | > 100 | > 100 µM | > 100 µM | > 100 | > 100 | > 100 µM | – | – | – |
| CC(C)(C)c1nc2c(o1)C(=Nc1ccccc1)c1ccccc1C2=O | 38.1 | 11.3 | 20.9 µM | 85.8 µM | 50.1 | 2.32 | 43.7 µM | 51.9 µM | – | – |
| O=C(NO)c1ccc(C(=O)NO)cc1 | – | – | – | – | – | – | – | – | > 100 µM | – |
| O=[N+]([O-])c1ccccc1S(=O)c1ccccc1 (stereo unspecified) | > 100 | > 100 | – | – | > 100 | > 100 | > 100 µM | – | – | – |
| CCOC(C)OCC#CCCBr (stereo unspecified) | > 100 | > 100 | > 100 µM | > 100 µM | > 100 | > 100 | > 100 µM | – | – | – |
| [Cu+2].[Cu+2].[O-]c1ccccc1C=Nc1ccccc1[O-].[O-]c1ccccc1C=Nc1ccccc1[O-] | 16.6 | 13.6 | 16.6 µM | 28 µM | 9.48 | 3.69 | 36.4 µM | – | – | GI50 (DLD-1 colon): 3.95 µM; GI50 (DMS 273 small cell lung): 2.54 µM; GI50 (HOP-18 NSCLC): 2.99 µM; GI50 (KM20L2 colon): 8.16 µM; GI50 (LXFL 529 NSCLC): 3.02 µM; GI50 (M19-MEL melanoma): 1.86 µM; GI50 (SNB-78 CNS): 13.5 µM |
| O=C(Cc1ccccc1)Oc1ccc2c(-c3ccccc3)c(C(=O)Nc3ccc(Cl)cc3)c(=O)oc2c1 | > 100 | > 100 | – | > 100 µM | > 100 | > 100 | > 100 µM | – | – | – |
| COc1cc2c(cc1OC)C1c3ccccc3C(C#N)(C2)N(C(=O)c2ccccc2)C1O (stereo unspecified) | > 100 | > 100 | > 100 µM | > 100 µM | > 100 | > 100 | > 100 µM | > 100 µM | – | – |
| COc1ccc(OC)c(/C=C/[N+](=O)[O-])c1 | 8.65 | 6.99 | 3.85 µM | 9.34 µM | 4.83 | 5.96 | 58.8 µM | 10.3 µM | 25.3 µM | – |
| CN(C)CCC1(C2=CCCC2)CC/C(=C\c2ccc3c(c2)OCO3)C1=O (stereo unspecified) | 38.3 | – | 26.4 µM | 28.6 µM | 25.5 | 32.6 | 35 µM | 38.7 µM | – | – |
| COc1nc(OC)c2c(=O)oc(-c3ccccc3)cc2n1 | – | > 100 | – | > 100 µM | > 100 | > 100 | > 100 µM | – | – | – |
| CCCCOC1CC2(c3ccc(OC)cc3)C(=O)c3ccccc3N2O1 (stereo unspecified) | – | > 10 | – | > 10 µM | – | > 10 | > 10 µM | > 10 µM | – | – |
| CC(NC(=O)c1ccccc1)C(=O)N(Cc1ccccc1)Cc1ccccc1 (stereo unspecified) | > 100 | 47.1 | – | 90.4 µM | 53.4 | 67.7 | 96.6 µM | – | – | – |
| O=C1CCC2(c3ccc(F)cc3)Nc3ccccc3N12 (stereo unspecified) | > 100 | – | – | > 100 µM | > 100 | > 100 | > 100 µM | > 100 µM | – | – |
| CC(C)C1CN1CC(O)Cn1ccnc1[N+](=O)[O-] (stereo unspecified) | – | – | – | – | – | – | – | – | > 100 µM | – |
| COC(=O)c1cnc2nc(N3CCOCC3)[nH]n2c1=O | – | > 100 | – | > 100 µM | – | > 100 | > 100 µM | – | – | – |
| O=C(Cn1ccnc1[N+](=O)[O-])N(CCO)CCO | > 1250 | > 1250 | > 1250 µM | > 1250 µM | – | > 1250 | > 1250 µM | – | > 250 µM | TGI (P388 leukemia): > 1250 µM; TGI (P388/ADR leukemia): > 1250 µM |
| COc1cc(OC)cc(N2CCC(c3c(N)nc(N)nc3Cl)CC2)c1 | > 100 | > 100 | – | > 100 µM | > 100 | > 100 | > 100 µM | > 100 µM | – | – |
| O=C(NC1CCCCC1)c1c(O)[nH]c(=S)[nH]c1=O | > 100 | – | > 100 µM | > 100 µM | > 100 | > 100 | > 100 µM | > 100 µM | – | – |
| CC(=O)[CH-]C(=O)c1ccccc1.CC(=O)[CH-]C(=O)c1ccccc1.[Nd+3].[OH-].[OH3+] | > 100 | – | > 100 µM | > 100 µM | > 100 | > 100 | – | – | – | GI50 (DLD-1 colon): > 100 µM; GI50 (HOP-18 NSCLC): > 100 µM; GI50 (KM20L2 colon): > 100 µM; GI50 (LXFL 529 NSCLC): > 100 µM; GI50 (M19-MEL melanoma): > 100 µM |
| CN(C)c1c(Cl)c(=O)oc2c1ccc1nc(-c3ccccc3)sc12 | – | – | – | – | – | – | – | – | > 100 µM | – |

| Structure (SMILES) | TGI (DLD-1 colon) [µM] | TGI (DMS 273 small cell lung) [µM] | TGI (HOP-18 NSCLC) | TGI (KM20L2 colon) | TGI (LXFL 529 NSCLC) [µM] | TGI (M19-MEL melanoma) [µM] | TGI (SNB-78 CNS) | TGI (RXF-631 renal) | TGI (MDA-N) | further results |
| --- | --- | --- | --- | --- | --- | --- | --- | --- | --- | --- |
| Cc1c(Cl)ccc2c1NC(=O)C2(O)CC(=O)c1ccc(Cl)cc1Cl (stereo unspecified) | – | > 50 | – | > 50 µM | > 50 | > 50 | > 50 µM | > 50 µM | > 50 µM | – |
| O=c1/c(=C/c2cccc3ccccc23)sc2nc3ccccc3n12 | > 100 | > 100 | > 100 µM | > 100 µM | > 100 | > 100 | > 100 µM | > 100 µM | – | – |
| COc1ccc(CC(=O)c2cc(OC)c(OC)cc2C)cc1OC | > 100 | – | – | > 100 µM | > 100 | > 100 | > 100 µM | – | – | – |
| CCOC(=O)C1NCCc2c1[nH]c1ccccc21 (stereo unspecified) | – | – | – | – | – | – | – | – | > 10 µM | – |
| Nc1nc2ncn(CCO)c2c(=O)[nH]1 | > 100 | > 100 | > 100 µM | > 100 µM | > 100 | > 100 | > 100 µM | – | – | – |
| CC1=CC[C@@H]2[C@@H](CC[C@@]2(C)O)C(C)(C)[C@H]1CC[C@@H]1[C@@]2(C)CCC(=O)C(C)(C)O[C@@H]2CC[C@]1(C)O | – | – | – | – | – | – | – | – | 57 µM | – |
| O=S(=O)(c1cccc(C(F)(F)F)c1)N1c2ccccc2-n2cccc2C1c1cccnc1 (stereo unspecified) | – | – | – | – | – | – | – | – | > 100 µM | – |
| CC(=O)O[C@]1(C(C)=O)CC[C@H]2[C@@H]3C[C@H](C)C4=CC(=O)C=C[C@]4(C)[C@@]3(F)[C@@H](O)C[C@@]21C | > 100 | > 100 | – | > 100 µM | – | > 100 | > 100 µM | – | – | – |
| COc1ccccc1-c1cc2c3c(nc4ccccc42)C(=O)c2cccnc2-c3n1 | – | – | – | – | – | – | – | – | 28.5 µM | GI50 (MDA-N): 14.9 µM |
| CCCCN(CC)C(=O)C(=O)C1C(=O)Nc2ccccc2S1=O (stereo unspecified) | > 100 | > 100 | > 100 µM | > 100 µM | > 100 | > 100 | > 100 µM | – | – | – |
| CS(=O)(=O)C1S(=O)(=O)OCCOS1(=O)=O | > 100 | > 100 | > 100 µM | > 100 µM | > 100 | > 100 | > 100 µM | > 100 µM | – | – |
| COc1ccc(CNc2cc(OC)cc(OC)c2)cc1 | > 100 | > 100 | > 100 µM | > 100 µM | > 100 | > 100 | 87.7 µM and 86.6 µM | – | – | GI50 (DLD-1 colon): 97.7 µM and 42.6 µM; GI50 (DMS 273 small cell lung): > 100 µM and 42.3 µM; GI50 (HOP-18 NSCLC): > 100 µM; GI50 (KM20L2 colon): > 100 µM and 49 µM |
| OCC(O)CC[CH2][Sn]([c]1ccccc1)([c]1ccccc1)[c]1ccccc1 (stereo unspecified) | 32 | 29.6 | 39.7 µM | 34.7 µM | 24.9 | 31.1 | 41.3 µM | 28.7 µM | – | GI50 (DLD-1 colon): 16.5 µM; GI50 (DMS 273 small cell lung): 14.3 µM; GI50 (HOP-18 NSCLC): 24.9 µM; GI50 (KM20L2 colon): 19.4 µM; GI50 (LXFL 529 NSCLC): 12.3 µM; GI50 (M19-MEL melanoma): 17.1 µM; GI50 (RXF-631 renal): 13.6 µM; GI50 (SNB-78 CNS): 19.6 µM |
| CC1OCC2OC(C)OC(C3C4=C(CC(C)(C)CC4=O)OC4=C3C(=O)CC(C)(C)C4)C2O1 (stereo unspecified) | – | – | – | – | – | – | – | – | > 100 µM | – |
| N#C/C(=C\c1ccc(CP(=O)(O)O)cc1)C(N)=O | > 100 | > 100 | > 100 µM | > 100 µM | > 100 | > 100 | – | – | – | – |
| Cc1c(Cl)cccc1NC(=O)CC1Sc2ccccc2NC1=O (stereo unspecified) | > 100 | > 100 | 32.7 µM and 31.5 µM | > 85.9 µM and 55 µM | > 100 | > 100 | 99 µM and > 100 µM | > 100 µM and 57.5 µM | 8.28 µM | GI50 (DMS 273 small cell lung): 10.6 µM and 26 µM; GI50 (RXF-631 renal): 44.5 µM and 21 µM |
| COC1/C=C/O[C@@]2(C)Oc3c(C)c(O)c4c(O)c(cc(O)c4c3C2=O)NC(=O)/C(C)=C\C=C\[C@H](C)C(O)[C@@H](C)[C@@H](O)[C@@H](C)[C@H](OC(C)=O)[C@@H]1C (stereo partly specified) | 30.4 | 32.7 | 38.8 µM | 30.5 µM | – | 26.1 | 95 µM | – | 39.9 µM and 27.8 µM | GI50 (MDA-N): 19.2 µM; TGI (P388 leukemia): 31.2 µM; TGI (P388/ADR leukemia): 59 µM |
| Cc1oc2ccccc2c(=O)c1Cn1nnc2ccccc21 | – | – | – | – | – | – | – | – | > 100 µM | – |
| O=C(O)CSc1n[nH]c(/C=C/c2ccccc2)n1 | > 100 | > 100 | > 100 µM | > 100 µM | > 100 | > 100 | > 100 µM | – | – | – |
| Cc1c(/C=C2\CC/C(=C\c3[nH]c(C(=O)OC(C)(C)C)c(C)c3C)C2=O)[nH]c(C(=O)OC(C)(C)C)c1C | > 100 | > 100 | > 100 µM | > 100 µM | > 100 | > 100 | > 100 µM | – | – | – |
| COc1cc2c(cc1OC)C13CCN4CC5=CCOC(CC(=O)O)C(C5CC41)C3N2 (stereo unspecified) | – | – | – | – | – | – | – | – | > 100 µM | – |
